PubChem BioAssay AID248 (DTP/NCI, 2004)
Values joined by “and” are separate entries in the source; they are usually repeats but may differ in a detail not shown here. Identical values can stand only once. Toxic doses and inconclusive results are not listed.

Tested on: L1210 leukemia ip in BDF1 mice, survival T/C
Assay: NCI In Vivo Anticancer Drug Screen. Data for tumor model L1210 Leukemia (intraperitoneal) in B6D2F1 (BDF1) mice
Details: endpoint: mean survival time, higher = longer survival
Outline: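 Tumor was transplanted into mice, which were then dosed with test compound or vehicle alone. Survival was recorded for each group, and the treated figure was expressed relative to the control figure.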

[1] = dose: 100.0 mg/kg/injection, schedule: Q04DX003 (ip), vehicle: saline
[2] = dose: 200.0 mg/kg/injection, schedule: Q04DX003 (ip), vehicle: saline
[3] = dose: 400.0 mg/kg/injection, schedule: Q04DX003 (ip), vehicle: saline
[4] = dose: 100.0 mg/kg/injection, schedule: Q04DX002 (ip), vehicle: saline
[5] = dose: 200.0 mg/kg/injection, schedule: Q04DX002 (ip), vehicle: saline
[6] = dose: 400.0 mg/kg/injection, schedule: Q04DX002 (ip), vehicle: saline
[7] = dose: 100.0 mg/kg/injection, schedule: Q04DX003 (ip), vehicle: Klucel (hydroxypropylcellulose) (HPC)
[8] = dose: 200.0 mg/kg/injection, schedule: Q04DX003 (ip), vehicle: Klucel (hydroxypropylcellulose) (HPC)
[9] = dose: 400.0 mg/kg/injection, schedule: Q04DX003 (ip), vehicle: Klucel (hydroxypropylcellulose) (HPC)

Q: For `CC#CCCC(=O)OCCCC`, which T/C (dose: 100.0 mg/kg/injection, schedule: Q04DX002 (ip), vehicle: saline with Tween-80) is on record?
A: 101 % of control

Q: What about the T/C (dose: 200.0 mg/kg/injection, schedule: Q04DX002 (ip), vehicle: saline with Tween-80) of the same molecule?
A: 93 % of control

Q: And the T/C (dose: 400.0 mg/kg/injection, schedule: Q04DX002 (ip), vehicle: saline with Tween-80)?
A: 97 % of control

Q: How did the T/C (dose: 15.0 mg/kg/injection, schedule: Q01DX Z (ip), vehicle: carboxymethylcellulose (CMC)) turn out when `C/C(=N/N=C(N)N)c1ccc(F)cc1` was run?
A: 95 % of control

Q: And the T/C (dose: 15.0 mg/kg/injection, schedule: Q01DX Z (oral), vehicle: carboxymethylcellulose (CMC))?
A: 113 % of control

Q: And the T/C (dose: 30.0 mg/kg/injection, schedule: Q01DX Z (ip), vehicle: carboxymethylcellulose (CMC))?
A: 100 % of control

Q: And the T/C (dose: 30.0 mg/kg/injection, schedule: Q01DX Z (oral), vehicle: carboxymethylcellulose (CMC))?
A: 98 % of control

Q: What about the T/C (dose: 60.0 mg/kg/injection, schedule: Q01DX Z (oral), vehicle: carboxymethylcellulose (CMC)) of the same molecule?
A: 103 % of control

Q: What does the source list for `CC(C)=CCCC(=O)Oc1ccccc1C(=O)O`?
A: T/C [1]: 99 % of control; T/C [2]: 91 % of control; T/C [3]: 93 % of control

Q: Which T/C (dose: 50.0 mg/kg/injection, schedule: Q04DX002 (ip), vehicle: Klucel (hydroxypropylcellulose) (HPC)) does the source give for `COC(=O)C(COC1OC(COC(C)=O)C(OC(C)=O)C(OC(C)=O)C1NC(C)=O)NC(=O)OCc1ccccc1` (stereo not given) here?
A: 91 % of control

Q: What about the T/C (dose: 100.0 mg/kg/injection, schedule: Q04DX002 (ip), vehicle: Klucel (hydroxypropylcellulose) (HPC)) of the same molecule?
A: 98 % of control

Q: And the T/C (dose: 200.0 mg/kg/injection, schedule: Q04DX002 (ip), vehicle: Klucel (hydroxypropylcellulose) (HPC))?
A: 88 % of control

Q: What does the source list for `COc1cc([N+](=O)[O-])ccc1NC(=O)Nc1cccc(C(F)(F)F)c1`?
A: T/C (dose: 100.0 mg/kg/injection, schedule: Q01DX009 (ip), vehicle: gum acacia): 92 % of control; T/C (dose: 200.0 mg/kg/injection, schedule: Q01DX009 (ip), vehicle: gum acacia): 92 % of control

Q: How did the T/C (dose: 100.0 mg/kg/injection, schedule: Q01DX001 (ip), vehicle: other) turn out when `Oc1ccccc1C=NCCN=Cc1ccccc1O.[Cu]` was run?
A: 97 % of control

Q: And the T/C [4]?
A: 99 % of control

Q: What about the T/C (dose: 200.0 mg/kg/injection, schedule: Q01DX001 (ip), vehicle: other) of the same molecule?
A: 103 % of control

Q: What about the T/C [5] of the same molecule?
A: 99 % of control

Q: And the T/C (dose: 400.0 mg/kg/injection, schedule: Q01DX001 (ip), vehicle: other)?
A: 94 % of control

Q: And the T/C [6]?
A: 96 % of control

Q: `c1cc[c]([Sn]([c]2ccccc2)([c]2ccccc2)[n]2cncn2)cc1` was tested. Which T/C (dose: 6.25 mg/kg/injection, schedule: Q04DX002 (ip), vehicle: saline with Tween-80) did it give?
A: 101 % of control

Q: And the T/C (dose: 12.5 mg/kg/injection, schedule: Q04DX002 (ip), vehicle: saline with Tween-80)?
A: 93 % of control

Q: What about the T/C (dose: 25.0 mg/kg/injection, schedule: Q04DX002 (ip), vehicle: saline with Tween-80) of the same molecule?
A: 112 % of control

Q: `Cc1cc(Cl)ccc1NC(=O)c1ccccc1Cl` was tested. Which T/C (dose: 100.0 mg/kg/injection, schedule: Q01DX009 (ip), vehicle: Klucel (hydroxypropylcellulose) (HPC)) did it give?
A: 101 % of control

Q: What about the T/C [1] of the same molecule?
A: 109 % of control

Q: What about the T/C (dose: 200.0 mg/kg/injection, schedule: Q01DX009 (ip), vehicle: Klucel (hydroxypropylcellulose) (HPC)) of the same molecule?
A: 90 % of control

Q: And the T/C [2]?
A: 106 % of control

Q: What about the T/C (dose: 400.0 mg/kg/injection, schedule: Q01DX009 (ip), vehicle: Klucel (hydroxypropylcellulose) (HPC)) of the same molecule?
A: 89 % of control

Q: And the T/C [3]?
A: 106 % of control

Q: `N#CC1C(=O)N=C(c2ccccc2)CC1c1ccccc1` (stereo not given) was tested. Which T/C (dose: 100.0 mg/kg/injection, schedule: Q01DX001 (ip), vehicle: saline with Tween-80) did it give?
A: 86 % of control

Q: And the T/C (dose: 200.0 mg/kg/injection, schedule: Q01DX001 (ip), vehicle: saline with Tween-80)?
A: 96 % of control

Q: And the T/C (dose: 400.0 mg/kg/injection, schedule: Q01DX001 (ip), vehicle: saline with Tween-80)?
A: 104 % of control

Q: Which results are given for `O=C([S][Pb]([c]1ccccc1)([c]1ccccc1)[c]1ccccc1)c1ccccc1`?
A: T/C (dose: 2.0 mg/kg/injection, schedule: Q01DX009 (ip), vehicle: Klucel (hydroxypropylcellulose) (HPC)): 109 % of control; T/C (dose: 2.0 mg/kg/injection, schedule: Q04DX003 (ip), vehicle: Klucel (hydroxypropylcellulose) (HPC)): 89 % of control; T/C (dose: 4.0 mg/kg/injection, schedule: Q01DX009 (ip), vehicle: Klucel (hydroxypropylcellulose) (HPC)): 123 % of control; T/C (dose: 4.0 mg/kg/injection, schedule: Q04DX003 (ip), vehicle: Klucel (hydroxypropylcellulose) (HPC)): 97 % of control; T/C (dose: 8.0 mg/kg/injection, schedule: Q01DX009 (ip), vehicle: Klucel (hydroxypropylcellulose) (HPC)): 90 % of control; T/C (dose: 8.0 mg/kg/injection, schedule: Q04DX003 (ip), vehicle: Klucel (hydroxypropylcellulose) (HPC)): 94 % of control and 97 % of control; T/C (dose: 11.0 mg/kg/injection, schedule: Q04DX003 (ip), vehicle: Klucel (hydroxypropylcellulose) (HPC)): 100 % of control

Q: `c1ccc(-c2oc3cc4c(cc3c2-c2ccc(OCCN3CCCC3)cc2)CCC4)cc1` was tested. Which T/C (dose: 100.0 mg/kg/injection, schedule: Q04DX003 (ip), vehicle: saline with Tween-80) did it give?
A: 90 % of control

Q: With `CCOC(=O)C1C(=O)N(O)c2cnccc21` (stereo not given) as the molecule, how does the T/C (dose: 100.0 mg/kg/injection, schedule: Q01DX001 (ip), vehicle: saline) read?
A: 107 % of control

Q: What about the T/C (dose: 200.0 mg/kg/injection, schedule: Q01DX001 (ip), vehicle: saline) of the same molecule?
A: 107 % of control

Q: And the T/C (dose: 400.0 mg/kg/injection, schedule: Q01DX001 (ip), vehicle: saline)?
A: 88 % of control

Q: Which results are given for `CCOC(=O)C(NC(C)=O)(C(=O)OCC)C(C)C(O)c1ccc(OC)c(OC)c1O` (stereo not given)?
A: T/C [1]: 92 % of control; T/C [2]: 113 % of control; T/C [3]: 103 % of control

Q: For `O=C(O)c1ccc([N+](=O)[O-])cc1-n1cccc1`, which T/C [7] is on record?
A: 95 % of control

Q: What about the T/C [8] of the same molecule?
A: 98 % of control

Q: And the T/C [9]?
A: 88 % of control

Q: `Cc1ccc(N=C=S)cc1F` was tested. Which T/C (dose: 75.0 mg/kg/injection, schedule: Q01DX001 (ip), vehicle: other) did it give?
A: 95 % of control

Q: How did the T/C (dose: 100.0 mg/kg/injection, schedule: Q01DX001 (ip), vehicle: acetone) turn out when `O=S(=O)(c1ccc2ccccc2c1)C1CC1c1ccccc1` (stereo not given) was run?
A: 92 % of control

Q: What about the T/C (dose: 200.0 mg/kg/injection, schedule: Q01DX001 (ip), vehicle: acetone) of the same molecule?
A: 98 % of control

Q: And the T/C (dose: 400.0 mg/kg/injection, schedule: Q01DX001 (ip), vehicle: acetone)?
A: 93 % of control

Q: Which results are given for `O=C(Nc1cccc(O)c1)Nc1cccc(Cl)c1Cl`?
A: T/C (dose: 100.0 mg/kg/injection, schedule: Q01DX009 (ip), vehicle: saline with Tween-80): 91 % of control; T/C (dose: 200.0 mg/kg/injection, schedule: Q01DX009 (ip), vehicle: saline with Tween-80): 92 % of control; T/C (dose: 400.0 mg/kg/injection, schedule: Q01DX009 (ip), vehicle: saline with Tween-80): 94 % of control

Q: `O=C(CCN1CC1)NCCCCCCCCNC(=O)CCN1CC1` was tested. Which T/C (dose: 1.0 mg/kg/injection, schedule: Q01DX009 (ip), vehicle: saline) did it give?
A: 91 % of control

Q: What about the T/C (dose: 2.0 mg/kg/injection, schedule: Q01DX009 (ip), vehicle: saline) of the same molecule?
A: 105 % of control

Q: What about the T/C (dose: 4.0 mg/kg/injection, schedule: Q01DX009 (ip), vehicle: carboxymethylcellulose (CMC)) of the same molecule?
A: 111 % of control

Q: And the T/C (dose: 8.0 mg/kg/injection, schedule: Q01DX009 (ip), vehicle: carboxymethylcellulose (CMC))?
A: 96 % of control

Q: What about the T/C (dose: 22.0 mg/kg/injection, schedule: Q01DX001 (ip), vehicle: carboxymethylcellulose (CMC)) of the same molecule?
A: 111 % of control

Q: What about the T/C (dose: 26.0 mg/kg/injection, schedule: Q01DX009 (ip), vehicle: carboxymethylcellulose (CMC)) of the same molecule?
A: 151 % of control

Q: What about the T/C (dose: 33.0 mg/kg/injection, schedule: Q01DX001 (ip), vehicle: carboxymethylcellulose (CMC)) of the same molecule?
A: 122 % of control

Q: What about the T/C (dose: 33.0 mg/kg/injection, schedule: Q01DX009 (ip), vehicle: carboxymethylcellulose (CMC)) of the same molecule?
A: 151 % of control

Q: What about the T/C (dose: 50.0 mg/kg/injection, schedule: Q01DX009 (ip), vehicle: carboxymethylcellulose (CMC)) of the same molecule?
A: 160 % of control

Q: And the T/C (dose: 75.0 mg/kg/injection, schedule: Q01DX001 (ip), vehicle: carboxymethylcellulose (CMC))?
A: 150 % of control

Q: For `Cn1nc([N+](=O)[O-])sc1=N`, which T/C [7] is on record?
A: 98 % of control

Q: What about the T/C [8] of the same molecule?
A: 98 % of control

Q: What about the T/C [9] of the same molecule?
A: 101 % of control

Q: `Nc1nc(-c2cccc(NC(=O)c3ccc(S(=O)(=O)F)cc3)c2)nc2[nH]ncc12` was tested. Which T/C (dose: 25.0 mg/kg/injection, schedule: Q01DX001 (ip), vehicle: Klucel (hydroxypropylcellulose) (HPC)) did it give?
A: 86 % of control

Q: What about the T/C (dose: 50.0 mg/kg/injection, schedule: Q01DX001 (ip), vehicle: Klucel (hydroxypropylcellulose) (HPC)) of the same molecule?
A: 94 % of control

Q: And the T/C (dose: 100.0 mg/kg/injection, schedule: Q01DX001 (ip), vehicle: Klucel (hydroxypropylcellulose) (HPC))?
A: 86 % of control

Q: Which results are given for `O=CC(O)C(O)C(O)C(O)COP(=O)(O)O` (stereo not given)?
A: T/C (dose: 25.0 mg/kg/injection, schedule: Q01DX009 (ip), vehicle: saline): 102 % of control; T/C (dose: 50.0 mg/kg/injection, schedule: Q01DX009 (ip), vehicle: saline): 93 % of control; T/C (dose: 100.0 mg/kg/injection, schedule: Q01DX009 (ip), vehicle: saline): 88 % of control

Q: With `C[CH2][Ge]1([CH2]C)[CH2]CC2(C[CH2]1)NC(=O)N(CCCN(C)C)C2O` (stereo not given) as the molecule, how does the T/C [4] read?
A: 96 % of control

Q: What about the T/C [5] of the same molecule?
A: 100 % of control

Q: And the T/C [6]?
A: 88 % of control
